Experiment [1] concerns MCF10A breast epithelial cell line transformed with H-RAS^V12. Kind of experiment: Growth and apoptosis of MCF10A H-RAS^V12 cells (IncuCyte). In kind it is cell-based, human. The note with it: MCF10A H-RAS^V12, 1 mM glucose, 25 µM. On the procedure:
For both adherent A549 and MCF10A H-RAS^V12 cell lines, growth curves were established using the IncuCyte® ZOOM technology. By collecting phase contrast images, the IncuCyte® software provides a calculated confluency percentage from which growth curves can be deducted. The cell number/density was measured by calculating the confluency of phase objects (cells) sticking on the bottom of the well. Cells were seeded at a density of 1000 - 1500 cells/well in a Nunc-Edge™ 96-well plate (Thermo Fisher Scientific) and growth was typically measured over 3 to 5 days. For the measurement of apoptosis induction using the MCF10A H-RAS^V12 cell line, the IncuCyte® Caspase-3/7 green dye was added to the medium in the recommended concentration at the beginning of the growth curve experiment. Apoptosis was detected by taking fluorescent images by excitation at 488 nm followed by IncuCyte® software analysis. Cell growth of the KMS-12-PE multiple myeloma cell line, which grows in suspension, was measured by manual cell counting. Cells were initially seeded at a density of 10^4 cells/well and incubated for 4 days after which the cell number was counted. For all cell lines, the same medium used for pregrowth was also used for the growth curve experiment, albeit with different glucose concentrations depending on the experimental design. With compound administration, the final concentration of DMSO never exceeded 0.1%. Typically, at least four technical repeats were included per condition.

Experiment [2] concerns hxk2Δ hxk1Δ GLK1 yeast cells. Kind of experiment: Sugar uptake in hxk2Δ hxk1Δ GLK1 yeast cells. In kind it is cell-based, S. cerevisiae. On the procedure: Zero-trans uptake of radioactively labeled [U-^14C]glucose, [U-^14C]fructose or [U-^14C]galactose by S. cerevisiae cells was determined in accordance with previous studies ([45], [75]). Cells were grown on different carbon sources depending on the experiment. For measuring glucose uptake activity in the tps1Δ and tps1Δ hxtΔ strains, cells were grown on YP medium containing 325 mM glycerol (measurement of 10 s). Typically, for compound characterization and kinetic studies in wild type and tps1Δ strains, cells were (pre)grown on Complete Synthetic medium supplemented with 110 mM galactose (measurement of 10 s). In the experiments on the influence of hexokinase activity on the sugar uptake rate, the measurement duration was shortened to 5 s and cells were always grown on YP medium containing 325 mM glycerol and 430 mM ethanol. After harvesting, cells were washed twice with ice-cold 25 mM MES-buffer pH 6, and resuspended in their respective medium without sugar to a final concentration of 45 mg (wet weight)/mL. The amount of added tracer was estimated to give a response close to at least 1000 counts per min in order to adequately counter background noise. Cells were first preincubated for 10 min at 30°C with the compound to acclimate the cells to the temperature and to allow adequate interaction with the compound prior to uptake. Next, hexose sugar was mixed with the cell suspension, which was then incubated at 30°C for 5 or 10 s, depending on the experiment, after which the cells were rapidly filtered over a glass microfiber filter (Whatman GF/C) and washed three times with ice-cold dH2O. The loaded filter was transferred to a scintillation vial containing 3 mL liquid scintillation cocktail (Ultima-Flo M, Perkin Elmer) and counted using the Hidex 300 SL. Three blank measurements per strain were typically included to account for background signal, for which the cells were first quenched before adding the radioactive label.

The target of the next experiment is T1, human GLUT1^V69M (Homo sapiens, UniProt P11166, V69M).
T1 construct: expressed in transfected cells; host or cells: S. cerevisiae RE700A hxt0 gal2Δ transformed with pFL38Kan-GLUT1^V69M (TEF1 promoter, low-copy)
T1 sequence (P11166 1-492 V69M): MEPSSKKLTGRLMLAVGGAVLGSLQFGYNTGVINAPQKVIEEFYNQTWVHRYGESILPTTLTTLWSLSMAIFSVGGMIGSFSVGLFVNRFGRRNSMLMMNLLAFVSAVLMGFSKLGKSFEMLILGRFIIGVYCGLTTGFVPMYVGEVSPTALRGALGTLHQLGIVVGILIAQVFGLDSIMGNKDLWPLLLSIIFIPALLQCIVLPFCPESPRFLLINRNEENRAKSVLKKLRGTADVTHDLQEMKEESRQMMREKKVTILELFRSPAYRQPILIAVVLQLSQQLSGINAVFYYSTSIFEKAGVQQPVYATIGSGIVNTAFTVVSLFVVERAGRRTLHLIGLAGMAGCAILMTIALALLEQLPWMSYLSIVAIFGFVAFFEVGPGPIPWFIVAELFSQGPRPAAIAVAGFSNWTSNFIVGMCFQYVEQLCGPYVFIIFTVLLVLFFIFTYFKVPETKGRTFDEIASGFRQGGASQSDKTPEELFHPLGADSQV
Briefly: Glucose uptake by GLUT1^V69M expressed in yeast RE700A hxt^0 gal2Δ. In kind it is cell-based. The note with it: 25 µM, hxt^0 gal2Δ strain. How it is done: Cells of S. cerevisiae were either grown in minimal or rich medium. For minimal medium, cells were grown in Complete Synthetic medium (MP biomedicals) containing 0.5% (w/v) ammonium sulphate (Sigma-Aldrich), 0.17% (w/v) yeast nitrogen base without amino acids and without ammonium sulphate, supplemented with 100 mg/L adenine. In the case of auxotrophic selection, the appropriate composition of essential amino acids (MP Biomedicals) was chosen. For liquid medium, pH was adjusted to 5.5 and for solid medium (2% agar) to 6.5 with KOH. For rich medium, cells were grown on YP medium (1% w/v yeast extract, 2% w/v bacteriological peptone), supplemented with 100 mg/L adenine. Cells of the EBY.VW4000 hxt^0 strain expressing a single HXT carrier or GLUT isoform were (pre)grown in YP medium with 58 mM maltose (which is taken up by its own dedicated maltose transporter). S. cerevisiae cells were always grown at 30°C. Liquid cultures were shaken at 200 rpm.
Zero-trans uptake of radioactively labeled [U-^14C]glucose, [U-^14C]fructose or [U-^14C]galactose by S. cerevisiae cells was determined in accordance with previous studies ([45], [75]). Cells were grown on different carbon sources depending on the experiment. […] The loaded filter was transferred to a scintillation vial containing 3 mL liquid scintillation cocktail (Ultima-Flo M, Perkin Elmer) and counted using the Hidex 300 SL. […]

Setting [3] is: 250 µM CCCP or 50 µM WBC-A 10 min prior, 100 mM maltose with the tracer.

Consider `Cc1nc(SCC(=O)c2ccc3c(c2)NC(=O)CO3)c2c(-c3cccs3)csc2n1` [WBC-11C], for which, in experiment [1], the “induction of apoptosis (caspase 3/7 dye)” value is “strong induction of apoptosis” and the inhibition of proliferation result is on record as “highest potency”.
Consider `Cc1nc(Sc2nnc3n2CCCCC3)c2c(-c3cccs3)csc2n1` [WBC-A], for which, in experiment [2] (setting [3]), the “fructose uptake at tracer concentration” value is recorded as “little inhibition of fructose uptake” and the “glucose uptake at tracer concentration” value is given as “strong inhibition of glucose uptake”. The inhibition at 50 µM in experiment [2] (Saccharomyces cerevisiae, read-out: inhibition of fructose transport) was about 30%. For the same molecule, at human GLUT1^V69M, the “inhibition of 2.5 mM glucose uptake by GLUT1^V69M” value is “inhibited glucose uptake both by Hxt7 and GLUT1^V69M”.

A word on the inhibition: it is the drop in the measured response relative to a control, in per cent.

The record behind these values is publication PMC11374660, “The novel family of Warbicin® compounds inhibits glucose uptake both in yeast and human cells and restrains cancer cell proliferation” (Frontiers in Oncology, 2024).
